Reference: patent US20080096971A1, “Treatment of Inflammatory Disorders and Pain” (priority 2004, published 2008)
“Also recorded” adds a separate entry of the source.

Tests used:
[1] = test system: Guinea-pig trachea ring preparations (beta2 agonism); experiment: Beta2 Agonism Functional Assay (carbachol-contracted trachea rings); assay type: cell-based; details: for beta2 agonist activity (in words): guinea-pig trachea, formoterol positive control
Protocol: Beta2 Agonism Functional Assay
Guinea-pig trachea ring preparations were suspended in Kreb's solution containing indomethacin. After 15 minutes stabilisation, the preparations were repeated contracted using carbachol and simultaneously treated with increasing cumulative doses test compounds (0.1 nM to 0.1 μM). Beta2 agonism for each test compound was determined by its dose-dependant inhibition of carbachol-stimulated tracheal muscle twitch.

[2] = test system: Serum TNFα and IL-10 levels; experiment: LPS Mouse Assay; assay type: in vivo, Balb C ByJ mice; details: LPS 1 mg/kg i.p., serum 2 hours after challenge, 0.3 and 1 mg/kg p.o. for (S)-clenbuterol
Protocol: 7 week old Balb C ByJ mice (24-28 g) were administered, either by i.p. (5 ml/kg) or oral (10 ml/kg) administration, with vehicle or test article. 30 minutes later these animals were challenged with an intraperitoneal injection of 1 mg/kg LPS. 2 hours after LPS challenge blood samples were collected under light isoflurane anaesthesia into normal tubes by retro-orbital puncture. Samples were allowed to clot at room temperature and then spun at 6000 g for 3 min at 4° C. Serum was stored at −20° C. until use. Serum TNFα and IL-10 levels were analysed in duplicate by ELISA technique.

[3] = test system: male Wistar rats (carrageenan-injected right hind paw); experiment: Carrageenan Paw Assay; assay type: in vivo; details: doses of 0.3, 1 and 3 mg/kg oral; 1-5 hours after carrageenan
Protocol: Fasted (18 hour) male Wistar rats (105-130 g) were weighed and a basal mercury plethysmometer reading was taken of the right hind paw by submerging the paw in the mercury up to the tibiotarsal joint. Subsequently, vehicles, reference items and test articles were administered by oral gavage (10 ml/kg). Half an hour after treatment 0.1 ml of 2% carrageenan in 0.9% saline was injected into the subplanatar area of the right hind paw. The right paw was measured again with the plethysmometer at 1, 2, 3, 4 and 5 hours after carrageenan administration.

[4] = test system: Male Wistar rats (Freund's adjuvant); experiment: Rat Adjuvant Assay; assay type: in vivo; details: oral once a day from day 11; (S)-clenbuterol at 0.3, 1 and 3 mg/kg/day
Protocol: Male Wistar rats (180 to 200 g) were inoculated by subplantar injection of Freund's adjuvant (suspension of Mycobacterium butyricum in mineral oil) into the right paw at day 0. Sham inoculations were injected in the same way with 0.9% saline in matched Male Wistar rats. On day 2 animals were weighed. On days 3, 4, 7, 9 and 11 animals were weighed and both their right and left hind paws were measure by plethsymometry by submerging the paw up to the tibiotarsal joint. On day 11, rats with left hind paw volumes increased by 20% were selected for continuance in the study. On the same day continuance rats were administered test article orally (10 ml/kg in distilled water) and from then on once a day until the completion of the study. Left and right hind paw volumes were measured on days 11, 14, 15, 16, 18 and 21.

[5] = test system: male DBA1 mice (collagen II induced arthritis); experiment: Collagen II-Induced Arthritis Assay; assay type: in vivo; details: doses of 0.3, 1 and 3 mg/kg, from day 21
Protocol: Collagen II-Induced Arthritis Assay
6 to 8 week old male DBA1 mice were immunised with 0.1 ml intradermal (tail) injection of bovine type II collagen emulsified in Freund's complete adjuvant (day 0). At day 21 a booster collagen (intraperitoneal) inoculation was given, in PBS. Simultaneously, administration of test compound was given by the predetermined route of administration and delivery frequency. In addition, day 21 commenced observation of clinical signs, body weights and arthritis reaction scores. Arthritis score was assessed by the summation of all four paws scored for signs of arthritis development.

Row | SMILES | inhibition of carbachol-stimulated tracheal muscle twitch ([1]; from −10 to −7 log M, cumulative doses) | beta2 agonist activity (in words) [1] | immunomodulatory activity (serum TNFα and IL-10 after LPS) [2] | immunomodulatory activity (serum TNFα and IL-10 after LPS) ([2]; listed as (S)-clenbuterol) | anti-inflammatory activity (paw volume) [3] | anti-inflammatory effect (hind paw volume) [4] | anti-inflammatory effect (arthritis score) [5] | beta2 agonist activity (in words) ([1]; listed as (R)-clenbuterol)
1 | CC(C)(C)NC[C@@H](O)c1cc(Cl)c(N)c(Cl)c1 [(S)-Clenbuterol, (S)-(+)-clenbuterol] | up to 75% | a little lower than that caused by formoterol | significant activity | profound immunomodulatory profile; also recorded: less than (R)-clenbuterol | strong and dose-dependent anti-inflammatory activity | clear but non-dose-related anti-inflammatory effect | clear but inverse dose-related anti-inflammatory effect | 
2 | CC(C)(C)NC[C@H](O)c1cc(Cl)c(N)c(Cl)c1 [(R)-Clenbuterol] |  | little such beta2 agonist activity | significant activity |  |  |  |  | distinct beta2 agonism
